What was measured:
Assay in all cases: biochemical
Set-up in all cases: KINOMEscan scanMAX active site-directed competition binding assay, percent of control, 468 kinases
Details in all cases: competition binding, percent of control
[1] = molecular target: T1, AMPK-alpha2 (Homo sapiens, UniProt P54646)
T1 construct: gene PRKAA2
Procedure: (§1) The KINOMEscan^TM screening platform (scanMAX assay) employs a proprietary active site-directed competition binding assay that quantitatively measures the interactions between test compounds (here 100 μM S-carvone) and 468 human protein kinases. The assay was performed at Eurofins DiscoverX Corp. (Fremont, CA, USA). Blocking protein kinase C (PKC) activity was reported to inhibit the transcription of CYP1A1 but to exert no effect on the nuclear translocation of AhR[26], which was also the case here with carvones. Therefore, we tested whether carvones inhibit PKC catalytic activity. […] We also evaluated the interaction between 100 μM S-carvone and 468 human protein kinases, employing KINOMEscan^TM (scanMAX assay), a proprietary active site-directed competition binding assay. The minimal inhibitory threshold used by the screening platform KINOMEscan^TM is 35% of the control kinase activity. Among 468 kinases tested, 467 were above the 35% cutoff. Tyrosine kinase 2 TK2 (JH2 domain pseudokinase) activity was inhibited to 27% of the control activity, but this kinase is not relevant to the regulation of transcription activity (Fig. 5B; Figure S9). Overall, we excluded the possibility that the effects of carvones on AhR signaling are caused indirectly by the inhibition of the human kinome, particularly PKC.

[2] = molecular target: T2, ARK5 (Homo sapiens, UniProt O60285)
T2 construct: gene NUAK1
Procedure: as §1

[3] = molecular target: AURKB (Homo sapiens, UniProt Q96GD4)
Procedure: as §1

[4] = molecular target: BRAF(V600E) (Homo sapiens, UniProt P15056, V600E)
Procedure: as §1

[5] = molecular target: BUB1 (Homo sapiens, UniProt O43683)
Procedure: as §1

[6] = molecular target: DAPK2 (Homo sapiens, UniProt Q9UIK4)
Chain of DAPK2 (Q9UIK4 whole entry): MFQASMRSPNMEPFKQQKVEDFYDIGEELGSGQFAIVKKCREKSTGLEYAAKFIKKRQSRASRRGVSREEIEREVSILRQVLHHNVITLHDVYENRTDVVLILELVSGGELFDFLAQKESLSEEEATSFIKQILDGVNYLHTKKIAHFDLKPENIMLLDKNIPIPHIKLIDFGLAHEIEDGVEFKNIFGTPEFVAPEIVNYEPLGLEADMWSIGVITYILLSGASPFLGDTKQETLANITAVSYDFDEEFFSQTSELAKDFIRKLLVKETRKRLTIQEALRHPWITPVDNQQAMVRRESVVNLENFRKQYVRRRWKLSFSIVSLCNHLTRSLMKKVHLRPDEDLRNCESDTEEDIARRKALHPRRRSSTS
Procedure: as §1

[7] = molecular target: EGFR (Homo sapiens, UniProt P00533)
Procedure: as §1

[8] = molecular target: EGFR(L747-S752del, P753S) (Homo sapiens, UniProt P00533, DEL747-752/P753S)
Chain of EGFR(L747-S752del, P753S) (P00533 with tags, fused parts or gaps DEL747-752/P753S): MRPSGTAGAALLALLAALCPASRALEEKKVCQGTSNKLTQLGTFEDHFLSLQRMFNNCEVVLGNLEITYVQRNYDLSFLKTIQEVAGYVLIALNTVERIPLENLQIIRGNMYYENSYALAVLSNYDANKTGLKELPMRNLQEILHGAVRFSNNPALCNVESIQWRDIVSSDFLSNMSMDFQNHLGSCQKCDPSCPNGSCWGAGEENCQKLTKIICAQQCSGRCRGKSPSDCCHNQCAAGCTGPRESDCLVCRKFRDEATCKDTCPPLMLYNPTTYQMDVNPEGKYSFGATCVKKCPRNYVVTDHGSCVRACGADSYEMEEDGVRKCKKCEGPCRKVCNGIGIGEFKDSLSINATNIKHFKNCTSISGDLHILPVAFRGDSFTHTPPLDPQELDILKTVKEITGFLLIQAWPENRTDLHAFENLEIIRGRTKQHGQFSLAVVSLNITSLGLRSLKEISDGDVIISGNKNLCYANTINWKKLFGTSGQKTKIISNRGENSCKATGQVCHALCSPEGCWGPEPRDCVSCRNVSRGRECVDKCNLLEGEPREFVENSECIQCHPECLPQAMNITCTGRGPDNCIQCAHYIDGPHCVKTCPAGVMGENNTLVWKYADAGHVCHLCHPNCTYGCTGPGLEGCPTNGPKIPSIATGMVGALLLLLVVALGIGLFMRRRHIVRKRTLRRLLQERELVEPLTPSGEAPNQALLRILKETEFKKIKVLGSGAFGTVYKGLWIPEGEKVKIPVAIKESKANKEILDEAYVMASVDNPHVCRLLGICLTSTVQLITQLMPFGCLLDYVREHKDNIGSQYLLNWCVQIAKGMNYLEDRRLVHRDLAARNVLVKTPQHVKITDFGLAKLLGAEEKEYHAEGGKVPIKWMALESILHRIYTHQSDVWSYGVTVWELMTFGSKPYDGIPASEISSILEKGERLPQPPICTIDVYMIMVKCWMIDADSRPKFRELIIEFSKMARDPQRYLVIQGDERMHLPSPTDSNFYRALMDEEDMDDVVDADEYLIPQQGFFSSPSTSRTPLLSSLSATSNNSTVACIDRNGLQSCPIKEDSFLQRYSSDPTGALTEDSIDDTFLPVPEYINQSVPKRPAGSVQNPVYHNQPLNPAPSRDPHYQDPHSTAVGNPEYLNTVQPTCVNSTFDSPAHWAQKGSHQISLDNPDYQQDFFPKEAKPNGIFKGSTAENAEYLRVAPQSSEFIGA
Procedure: as §1

[9] = molecular target: FER (Homo sapiens, UniProt P16591)
Chain of FER (P16591 whole entry): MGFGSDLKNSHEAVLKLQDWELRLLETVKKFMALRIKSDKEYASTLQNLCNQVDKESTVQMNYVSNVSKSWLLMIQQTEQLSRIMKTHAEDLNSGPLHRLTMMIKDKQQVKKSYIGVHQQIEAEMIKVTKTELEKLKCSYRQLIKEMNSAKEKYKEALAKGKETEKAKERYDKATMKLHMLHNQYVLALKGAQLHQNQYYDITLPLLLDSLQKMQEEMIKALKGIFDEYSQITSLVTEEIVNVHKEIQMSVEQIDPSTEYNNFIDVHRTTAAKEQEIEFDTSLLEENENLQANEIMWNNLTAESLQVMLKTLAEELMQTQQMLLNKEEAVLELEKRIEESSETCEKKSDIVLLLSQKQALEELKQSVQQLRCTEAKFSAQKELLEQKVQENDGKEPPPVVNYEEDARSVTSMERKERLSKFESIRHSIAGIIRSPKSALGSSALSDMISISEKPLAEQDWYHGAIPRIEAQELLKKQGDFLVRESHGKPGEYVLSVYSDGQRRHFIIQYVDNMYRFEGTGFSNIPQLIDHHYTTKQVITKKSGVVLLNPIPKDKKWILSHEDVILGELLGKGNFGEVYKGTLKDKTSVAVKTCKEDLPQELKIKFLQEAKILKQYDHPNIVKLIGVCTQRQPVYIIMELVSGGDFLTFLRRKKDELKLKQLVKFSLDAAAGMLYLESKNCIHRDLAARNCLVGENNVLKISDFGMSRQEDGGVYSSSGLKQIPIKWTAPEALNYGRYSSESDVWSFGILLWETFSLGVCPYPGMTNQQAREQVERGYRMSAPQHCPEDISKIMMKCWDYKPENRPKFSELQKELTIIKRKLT
Procedure: as §1

[10] = molecular target: T3, MEK5 (Homo sapiens, UniProt Q13163)
T3 construct: gene MAP2K5
Procedure: as §1

[11] = molecular target: MKNK1 (Homo sapiens, UniProt Q9BUB5)
Chain of MKNK1 (Q9BUB5 whole entry): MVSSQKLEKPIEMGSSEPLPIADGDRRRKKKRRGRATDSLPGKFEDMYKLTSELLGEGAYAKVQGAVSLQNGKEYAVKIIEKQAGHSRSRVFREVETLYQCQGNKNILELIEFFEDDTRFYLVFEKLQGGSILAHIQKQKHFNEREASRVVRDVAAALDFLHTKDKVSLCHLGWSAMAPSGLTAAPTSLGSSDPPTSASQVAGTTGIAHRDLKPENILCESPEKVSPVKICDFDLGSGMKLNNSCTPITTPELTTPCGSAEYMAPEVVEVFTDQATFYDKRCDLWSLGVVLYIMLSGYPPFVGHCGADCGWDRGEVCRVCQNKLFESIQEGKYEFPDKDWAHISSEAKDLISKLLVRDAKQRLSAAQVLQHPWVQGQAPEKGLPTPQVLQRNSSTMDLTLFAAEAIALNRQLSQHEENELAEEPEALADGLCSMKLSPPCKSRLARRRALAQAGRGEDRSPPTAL
Procedure: as §1

[12] = molecular target: PDGFRA (Homo sapiens, UniProt P16234)
Procedure: as §1

[13] = molecular target: PIK3CA(E542K) (Homo sapiens, UniProt P42336, E542K)
Chain of PIK3CA(E542K) (P42336 whole entry E542K): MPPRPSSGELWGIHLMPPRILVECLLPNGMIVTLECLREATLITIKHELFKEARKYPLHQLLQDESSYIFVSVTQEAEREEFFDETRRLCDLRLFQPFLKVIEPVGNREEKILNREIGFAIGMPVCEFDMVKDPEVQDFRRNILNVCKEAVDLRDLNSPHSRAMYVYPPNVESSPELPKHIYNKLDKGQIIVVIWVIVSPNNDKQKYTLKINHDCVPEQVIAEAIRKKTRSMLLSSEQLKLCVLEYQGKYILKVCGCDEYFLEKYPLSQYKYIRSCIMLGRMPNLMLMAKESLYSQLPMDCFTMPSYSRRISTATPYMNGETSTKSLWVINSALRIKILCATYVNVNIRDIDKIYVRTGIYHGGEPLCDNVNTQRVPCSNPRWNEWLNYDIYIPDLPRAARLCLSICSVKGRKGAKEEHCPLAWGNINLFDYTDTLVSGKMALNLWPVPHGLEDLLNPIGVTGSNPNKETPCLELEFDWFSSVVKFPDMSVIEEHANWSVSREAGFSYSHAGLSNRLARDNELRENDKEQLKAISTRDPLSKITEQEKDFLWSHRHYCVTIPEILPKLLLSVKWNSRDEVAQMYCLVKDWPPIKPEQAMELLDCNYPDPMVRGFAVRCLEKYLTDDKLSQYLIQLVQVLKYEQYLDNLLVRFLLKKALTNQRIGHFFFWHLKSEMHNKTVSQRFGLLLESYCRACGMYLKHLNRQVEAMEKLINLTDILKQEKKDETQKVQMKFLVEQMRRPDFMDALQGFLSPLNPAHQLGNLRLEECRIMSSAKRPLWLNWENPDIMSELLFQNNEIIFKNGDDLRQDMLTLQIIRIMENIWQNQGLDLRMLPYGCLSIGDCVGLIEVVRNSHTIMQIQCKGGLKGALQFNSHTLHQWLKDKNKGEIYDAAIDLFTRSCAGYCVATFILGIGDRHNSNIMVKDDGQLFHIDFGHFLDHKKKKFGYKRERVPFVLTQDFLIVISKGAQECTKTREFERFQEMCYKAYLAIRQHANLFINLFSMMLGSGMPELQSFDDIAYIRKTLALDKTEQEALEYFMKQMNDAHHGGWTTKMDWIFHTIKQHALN
Procedure: as §1

[14] = molecular target: PIK3CA(E545K) (Homo sapiens, UniProt P42336, E545K)
Chain of PIK3CA(E545K) (P42336 whole entry E545K): as the sequence (P42336 whole entry E542K) above, with K542E, E545K counted along it
Procedure: as §1

[15] = molecular target: PLK4 (Homo sapiens, UniProt O00444)
Procedure: as §1

[16] = molecular target: PRKCD (Homo sapiens, UniProt Q05655)
Procedure: as §1

[17] = molecular target: PRKCI (Homo sapiens, UniProt P41743)
Procedure: as §1

[18] = molecular target: RET(V804L) (Homo sapiens, UniProt P07949, V804L)
Chain of RET(V804L) (P07949 whole entry V804L): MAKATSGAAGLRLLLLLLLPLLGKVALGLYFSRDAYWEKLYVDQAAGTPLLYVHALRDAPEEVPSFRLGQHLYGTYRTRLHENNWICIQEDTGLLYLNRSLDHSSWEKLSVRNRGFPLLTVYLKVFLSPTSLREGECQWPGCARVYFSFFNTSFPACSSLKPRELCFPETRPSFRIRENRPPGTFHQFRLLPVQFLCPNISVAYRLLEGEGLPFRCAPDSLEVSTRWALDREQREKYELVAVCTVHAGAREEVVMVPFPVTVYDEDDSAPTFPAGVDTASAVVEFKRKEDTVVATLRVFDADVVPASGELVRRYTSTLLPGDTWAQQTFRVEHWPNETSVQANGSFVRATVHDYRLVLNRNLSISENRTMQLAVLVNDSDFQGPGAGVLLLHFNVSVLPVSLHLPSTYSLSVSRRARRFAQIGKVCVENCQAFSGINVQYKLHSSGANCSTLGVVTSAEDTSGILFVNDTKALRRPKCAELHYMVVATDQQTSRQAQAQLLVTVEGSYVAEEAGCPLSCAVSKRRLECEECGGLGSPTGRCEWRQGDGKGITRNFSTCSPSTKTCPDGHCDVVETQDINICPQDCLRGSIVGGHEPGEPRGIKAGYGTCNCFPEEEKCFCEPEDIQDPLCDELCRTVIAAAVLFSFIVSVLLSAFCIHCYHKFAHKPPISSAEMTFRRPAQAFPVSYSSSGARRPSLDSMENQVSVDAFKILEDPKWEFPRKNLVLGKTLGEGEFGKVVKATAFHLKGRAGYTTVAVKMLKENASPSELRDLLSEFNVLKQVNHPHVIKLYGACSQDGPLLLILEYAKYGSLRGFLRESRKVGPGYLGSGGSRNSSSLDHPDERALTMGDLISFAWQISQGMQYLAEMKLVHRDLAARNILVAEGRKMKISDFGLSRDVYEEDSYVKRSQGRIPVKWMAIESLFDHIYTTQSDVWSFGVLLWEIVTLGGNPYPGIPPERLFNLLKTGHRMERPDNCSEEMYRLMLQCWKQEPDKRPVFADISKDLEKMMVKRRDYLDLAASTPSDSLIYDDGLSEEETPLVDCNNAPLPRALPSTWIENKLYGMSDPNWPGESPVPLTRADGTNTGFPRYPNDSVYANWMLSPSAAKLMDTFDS
Procedure: as §1

[19] = molecular target: STK39 (Homo sapiens, UniProt Q9UEW8)
Procedure: as §1

[20] = molecular target: TBK1 (Homo sapiens, UniProt Q9UHD2)
Procedure: as §1

[21] = molecular target: TGFBR2 (Homo sapiens, UniProt P37173)
Procedure: as §1

`C=C(C)[C@H]1CC=C(C)C(=O)C1` [S-carvone] was tested. Which remaining binding at 100 µM [1] did it give?
The remaining binding at 100 µM was 88%.

What about the remaining binding at 100 µM [2] of the same compound?
Its remaining binding at 100 µM is 100%.

And the remaining binding at 100 µM [3]?
The remaining binding at 100 µM was 68%.

And the remaining binding at 100 µM [4]?
Its remaining binding at 100 µM is 90%.

What about the remaining binding at 100 µM [5] of the same compound?
Its remaining binding at 100 µM is 85%.

And the remaining binding at 100 µM [6]?
The remaining binding at 100 µM was 79%.

And the remaining binding at 100 µM [7]?
The remaining binding at 100 µM was 79%.

What about the remaining binding at 100 µM [8] of the same compound?
The remaining binding at 100 µM was 68%.

What about the remaining binding at 100 µM [9] of the same compound?
Its remaining binding at 100 µM is 75%.

And the remaining binding at 100 µM [10]?
The remaining binding at 100 µM was 74%.

What about the remaining binding at 100 µM [11] of the same compound?
The remaining binding at 100 µM was 62%.

What about the remaining binding at 100 µM [12] of the same compound?
The remaining binding at 100 µM was 80%.

And the remaining binding at 100 µM [13]?
The remaining binding at 100 µM was 70%.

What about the remaining binding at 100 µM [14] of the same compound?
The remaining binding at 100 µM was 63%.

And the remaining binding at 100 µM [15]?
Its remaining binding at 100 µM is 76%.

What about the remaining binding at 100 µM [16] of the same compound?
The remaining binding at 100 µM was 90%.

What about the remaining binding at 100 µM [17] of the same compound?
The remaining binding at 100 µM was 72%.

What about the remaining binding at 100 µM [18] of the same compound?
The remaining binding at 100 µM was 87%.

And the remaining binding at 100 µM [19]?
The remaining binding at 100 µM was 80%.

What about the remaining binding at 100 µM [20] of the same compound?
The remaining binding at 100 µM was 64%.

And the remaining binding at 100 µM [21]?
Its remaining binding at 100 µM is 77%.

From paper PMC10174618, “Monoterpenoid aryl hydrocarbon receptor allosteric antagonists protect against ultraviolet skin damage in female mice” (Nature Communications, 2023)
